How the values were obtained:
[1] = Plasma pharmacokinetics of dabrafenib, its metabolites and trametinib; assay type: in vivo, Japanese patients; details: for time by which plasma (trough) concentrations seemed to reach steady state: repeat dosing of 150 mg dabrafenib b.i.d. and 2 mg trametinib q.d.; for plasma AUC at repeat dosing (day 21) compared with single dose (day 1): AUC0-12 h for dabrafenib, AUC0-24 h for trametinib
[2] = Safety and tolerability; assay type: in vivo, Japanese patients

SMILES	time by which plasma (trough) concentrations seemed to reach steady state [1]	plasma AUC at repeat dosing (day 21) compared with single dose (day 1) [1]	half-life relative to the dose interval (24 h) ([1]; trametinib 2 mg q.d.)	adverse event leading to discontinuation ([2]; patient 11, phase 2)	adverse event leading to discontinuation ([2]; patient 1, phase 1)
CC(C)c1nc(-c2cccc(NS(=O)(=O)c3c(F)cccc3F)c2F)c(-c2ccnc(N)n2)s1 [GSK2167542]	≤ 3 week				
CC(=O)Nc1cccc(-n2c(=O)n(C3CC3)c(=O)c3c(Nc4ccc(I)cc4F)n(C)c(=O)c(C)c32)c1 [Trametinib, trametinib]	≤ 3 week	higher	approximately 3.5 times the dose interval	grade 3 uveitis	
CC(C)(CO)c1nc(-c2cccc(NS(=O)(=O)c3c(F)cccc3F)c2F)c(-c2ccnc(N)n2)s1 [GSK2285403]	≤ 3 week				
CC(C)(C(=O)O)c1nc(-c2cccc(NS(=O)(=O)c3c(F)cccc3F)c2F)c(-c2ccnc(N)n2)s1 [GSK2298683]	≤ 3 week				
CC(C)(C)c1nc(-c2cccc(NS(=O)(=O)c3c(F)cccc3F)c2F)c(-c2ccnc(N)n2)s1 [Dabrafenib, dabrafenib]	≤ 3 week	lower		grade 3 uveitis	grade 3 increased blood alkaline phosphatase
